{"source": "patent US9186385B2", "about": "(priority 2009, dated 2015)", "key": {"[1]": {"tested_on": "peritoneal macrophage phagocytosis", "assay": "Peritoneal macrophage phagocytosis in mice (India ink clearance, cyclophosphamide)", "type": "in vivo", "settings": "0.03 g/kg gastric infusion 7 days; cyclophosphamide-treated mice"}, "[2]": {"tested_on": "antibody level of hemolysin", "assay": "Circulating antibody level test on sheep red blood cells (cyclophosphamide immunodeficient mice)", "type": "in vivo", "settings": "0.03 g/kg gastric infusion 7 days; cyclophosphamide-treated mice; OD 540 nm", "protocol": "The anti-inflammatory effects of the extract compositions AB and ABC were determined for a series of treatment groups through the circulating antibody level test on sheep red blood cells.\nMice weighing 20-25 g were used in this study. Each group comprised an equal number of male and female animals. Rearing temperature was 23±2° C. The mice were divided into nine groups with 10 rats each: (1) blank control, (2) model control, (3) AB high dosage (15 g/kg), (4) AB mid dosage (7.5 g/kg), (5) AB low dosage (3.75 g/kg), (6) ABC high dosage (13.0 g/kg), (7) ABC mid dosage (7.66 g/kg), (8) ABC low dosage (3.83 g/kg), and (9) levamisole (0.03 g/kg).\nThe treatments of placebo and extract compositions were administered to each of the mice by gastric infusion for a period of 7 days. On the 2nd, 4th, and 6th day, each mouse, with the exception of those in the blank control group, was injected intraperitoneally with 50 mg/10 ml/kg of cyclophosphamide. Mice in the blank control group were injected intraperitoneally with saline of the same volume. Three days following administration of the final treatment (on day 7), all mice were each immunized by intraperitoneal injections of 0.2 ml of sheep erythrocyte suspension (5% of sheep erythrocyte in saline). […] The absorbance for each supernatant sample was recorded as an index of serum hemolytic level. […]"}, "[3]": {"tested_on": "type 1 FM1 influenza virus", "assay": "Inhibition of the FM1 influenza virus in mice (lung index)", "type": "in vivo, NIH mice"}, "[4]": {"tested_on": "permeability of the intraperitoneal blood capillary", "assay": "Anti-inflammatory effect: permeability of the intraperitoneal blood capillary (acetic acid, Evans blue)", "type": "in vivo, NIH mice", "settings": "0.15 g/kg intragastric once a day, 3 days; acetic acid i.p.; OD 570 nm", "protocol": "The anti-inflammatory effects of the extract compositions AB and ABC were determined for a series of treatment groups through measurement of the permeability of the intraperitoneal blood capillary.\nNIH mice, weighing 20±2 g, were used in this experiment. […] The rearing temperature was 23±2° C. The mice were randomly divided into nine groups with 10 mice in each group: (1) blank control, (2) model control, (3) AB high dosage (15 g/kg), (4) AB mid dosage (7.5 g/kg), (5) AB low dosage (3.75 g/kg), (6) ABC high dosage (13.0 g/kg), (7) ABC mid dosage (7.66 g/kg), (8) ABC low dosage (3.83 g/kg), and (9) sodium salicylate group (0.15 g/kg).\nAn acetic normal saline solution was prepared by dissolving about a 0.4% of glacial acetic acid in 50 ml of a normal saline solution.\nA 2% Evans blue normal saline solution was prepared by dissolving 2 g of Evans blue in 100 ml of normal saline solution. […]\nAbout twenty minutes following the receipt of the saline injections, each mouse was sacrificed by breaking its cervical vertebrae. […] The supernatant was then collected and the absorbance or optical density (OD) of the supernatant was measured at 570 nm using a spectrophotometer. The experimental data was analyzed. Data was assessed using the t-test to determine statistically significant differences between the results of each of the groups. […]"}, "[5]": {"tested_on": "foot swelling induced by carrageenan", "assay": "Rat foot swelling induced by carrageenan", "type": "in vivo, Rats", "settings": "0.15 g/kg oral once a day, 4 days", "protocol": "The anti-inflammatory effects of the extract compositions AB and ABC were determined for a series of treatment groups through measurement of the foot swelling of rat paws following the administration of carrageenan.\nRats weighing 200±20 g were used in this experiment. Each test group comprised the same number of male and female animals. Rearing temperature was 23±2° C. The rats were divided into eight groups with 10 rats each: (1) model control, (2) AB high dosage (15 g/kg), (3) AB mid dosage (7.5 g/kg), (4) AB low dosage (3.75 g/kg), (5) ABC high dosage (13.0 g/kg), (6) ABC mid dosage (7.66 g/kg), (7) ABC low dosage (3.83 g/kg), (8) sodium salicylate group (0.15 g/kg), […]. There was no blank control in this experiment as there is no swelling of an animal paws where carrageenan is not administered\nThe method for conducting this experiment followed the guidelines outlined in the Manual on Studies of New Medicines of TCM by the Drug Administration Ministry of Health P.R.C. The method outlined in the manual details the following steps:\n1. Draw a clear transverse line situated on the upper and front angles of the left back paw of each rat with a ballpoint pen;\n2. Measure the paw volume of each rat;\n3. Subcutaneously inject each rat, except those in the blank control group, with a dose of carrageenan (0.05 ml/paw) into the metatarsus of the hindlimb;\n4. Orally administer one of the treatments of the AB extract, ABC extract, or sodium salicylate as per the above-noted dosages once a day for a period of 4 days. Rats in the model control group and blank were injected with saline of the same volume;\n5. On the morning of the 4th day, one hour following the last administration of the final treatment, subcutaneously inject carrageenan (0.05 ml/paw) into the metatarsus of hindlimb of each rat;\n6. Measure the paw volume at each of 1 hour, 2 hours, 3 hours, and 4 hours following the second carrageenan administration; and\n7. Calculate the paw swelling percentage for each rat.\nThe swelling percentage was calculated by the following formula: Swelling percentage=((swelling volumes of rat paw after inflammation−swelling volumes of rat paw before inflammation)/swelling volumes of rat paw before inflammation)×100%\nThe experimental data was analyzed using the t-test to determine statistically significant differences between the results of each of the groups. There was no swelling in the paws of rats in the blank control group. The anti-inflammatory effects of the AB and ABC herbal extract compositions and sodium salicylate were considered to be effective when P was less than 0.05."}, "[6]": {"settings": "[…], 0.07 g/kg intragastric once a day, 3 days, day 4"}}}
{"smiles": "c1ccc([C@H]2CN3CCSC3=N2)cc1", "note": "[Levamisole, levamisole]", "values": [{"measurement": "Phagocytic coefficient (K)", "setting": "[1]", "value": "0.046 ± 0.007"}, {"measurement": "Phagocytic coefficient index (α)", "setting": "[1]", "value": "6.76 ± 0.43"}, {"measurement": "OD value of hemolysin", "setting": "[2]", "value": "0.75 ± 0.006"}]}
{"smiles": "NC(=O)c1ncn([C@@H]2O[C@H](CO)[C@@H](O)[C@H]2O)n1", "note": "[Ribavirin]", "values": [{"measurement": "Lung Index", "setting": "[3]; [6]", "value": "1.19 ± 0.30", "unit": "g/g"}, {"measurement": "Weight", "setting": "[3]; [6]", "value": "14.94 ± 1.64", "unit": "g"}, {"measurement": "The rate of inhibition of lung index", "setting": "[3]; mouse, in vivo", "value": 32.38, "unit": "%"}]}
{"smiles": "O=C([O-])c1ccccc1O.[Na+]", "note": "[Sodium salicylate, sodium salicylate]", "values": [{"measurement": "OD value of haemolysin in serum", "setting": "[4]", "value": "0.305 ± 0.060"}, {"measurement": "Paw swelling", "setting": "[5]; 1 h after carrageenan", "value": "0.490 ± 0.202", "unit": "mL"}, {"measurement": "Paw swelling", "setting": "[5]; 2 h after carrageenan", "value": "0.405 ± 0.195", "unit": "mL"}, {"measurement": "Paw swelling", "setting": "[5]; 3 h after carrageenan", "value": "0.265 ± 0.153", "unit": "mL"}, {"measurement": "Paw swelling", "setting": "[5]; 4 h after carrageenan", "value": "0.170 ± 0.136", "unit": "mL"}]}
